Reference: patent publication US20120009280A1, “METHOD OF REDUCING THE RATE OF DEGRADATION OF A BIOLOGICAL MATERIAL” (Bio-Energy Ingredients Limited, priority 2009, published 2012)

What was measured:
total micro-organism = experiment: Total microbial (plate) count of spent brewer's / wet distiller's grains stored at ambient temperature; type: cell-based
Procedure, shortened: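 Spent brewer's grains taken from a brewery discharge line were mixed at the laboratory and treated with powdered commercial calcium oxide containing approximately 94% CaO. Each batch was kept under insect-proof screens at ambient temperature, with no further treatment or agitation. Samples were drawn every seven days, and the entire sample was sent to a microbiological testing facility for total microbial counts.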

yeast = experiment: Yeast count of spent brewer's / wet distiller's grains stored at ambient temperature; type: cell-based
[1] = pH of suspensions of grain samples in distilled water or PBS; conditions: for pH: 1% (w/w) in distilled water
Method: The untreated sample (A) was compared visually against the corresponding quicklime-treated sample (B).
On Day 7, 10 g amounts of each sample were suspended in either 90 ml PBS or 90 ml sterile distilled water and shaken for 10 minutes. The pH of each suspension was then measured and compared.
On Day 9, 10 g of each sample was suspended in 90 ml PBS and shaken for 10 minutes. The pH was measured.

[2] = calcium oxide 0.5% (w/w), Example 14
[3] = dose 5% w/w, distiller's grains not de-watered, Examples 16-18
[4] = wet distiller's grains, 0.5% CaO (w/w), day 1
[5] = wet distiller's grains, 0.5% CaO (w/w), day 3
[6] = wet distiller's grains, 0.5% CaO (w/w), day 6
[7] = wet distiller's grains, 0.5% CaO (w/w), day 8
[8] = wet distiller's grains, 1.0% CaO (w/w), day 2
[9] = wet distiller's grains, 1.0% CaO (w/w), day 3
[10] = wet distiller's grains, 1.0% CaO (w/w), day 6
[11] = wet distiller's grains, 1.0% CaO (w/w), day 8
[12] = wet distiller's grains, 1.0% CaO (w/w), day 10
[13] = wet distiller's grains, 1.5% CaO (w/w), day 1
[14] = wet distiller's grains, 1.5% CaO (w/w), day 2
[15] = wet distiller's grains, 1.5% CaO (w/w), day 3
[16] = wet distiller's grains, 1.5% CaO (w/w), day 6
[17] = wet distiller's grains, 1.5% CaO (w/w), day 8
[18] = wet distiller's grains, 2.0% CaO (w/w), day 1
[19] = wet distiller's grains, 2.0% CaO (w/w), day 3
[20] = wet distiller's grains, 2.0% CaO (w/w), day 6
[21] = wet distiller's grains, 2.0% CaO (w/w), day 8
[22] = wet distiller's grains, 2.0% CaO (w/w), day 10
[23] = wet distiller's grains, 2.5% CaO (w/w), day 1
[24] = wet distiller's grains, 2.5% CaO (w/w), day 2
[25] = wet distiller's grains, 2.5% CaO (w/w), day 3
[26] = wet distiller's grains, 2.5% CaO (w/w), day 6
[27] = wet distiller's grains, 2.5% CaO (w/w), day 7
[28] = wet distiller's grains, 2.5% CaO (w/w), day 8
[29] = wet distiller's grains, 2.5% CaO (w/w), day 10
[30] = wet distiller's grains, 2.5% CaO (w/w), day 21
[31] = wet distiller's grains, 2.5% CaO (w/w), day 56
[32] = wet distiller's grains, 5.0% CaO (w/w), day 7
[33] = wet distiller's grains, 5.0% CaO (w/w), day 14
[34] = wet distiller's grains, 5.0% CaO (w/w), day 42
[35] = wet distiller's grains, 5.0% CaO (w/w), day 49
[36] = wet distiller's grains, 5.0% CaO (w/w), day 56
[37] = wet distiller's grains, 10.0% CaO (w/w), day 7
[38] = wet distiller's grains, 10.0% CaO (w/w), day 21
[39] = wet distiller's grains, 10.0% CaO (w/w), day 42
[40] = wet distiller's grains, 10.0% CaO (w/w), day 49
[41] = wet distiller's grains, 10.0% CaO (w/w), day 56

[O]=[Ca] [calcium oxide]
shelf life of fermentation residue (total micro-organism; 2.5% (w/w) calcium oxide powder added to the fermentation residue): at least 10 days
Total plate count (total micro-organism; 5% CaO (w/w) powder, week 1): 2770 cfu/gram
Total plate count (total micro-organism; 5% CaO (w/w) powder, week 2): 200 cfu/gram
Total plate count (total micro-organism; 5% CaO (w/w) powder, week 3): 4800 cfu/gram
Total plate count (total micro-organism; 5% CaO (w/w) powder, week 4): 10 cfu/gram
Total plate count (total micro-organism; 5% CaO (w/w) powder, week 5): 10 cfu/gram
shelf life of fermentation residue (total micro-organism; 10% (w/w) calcium oxide added to the fermentation residue): at least 63 days
effect on micro-organism levels (total micro-organism; [2]): only a very limited effect
suppressed microbial levels up to day (total micro-organism; calcium oxide 1.0% (w/w), Example 14): 8 days
preservation effect period (total micro-organism; calcium oxide 2.5% (w/w), Example 9): only the first week
preservation effect period (total micro-organism; calcium oxide 5.0% (w/w), Example 9): 49 days
preservation effect period (total micro-organism; calcium oxide 10% (w/w), Example 9): 56 days
preservation period (total micro-organism; calcium oxide 10% (w/w), Example 18): 9 week
total microbial count after treatment (total micro-organism; calcium oxide 10% (w/w), spent brewer's grains, initial count 3,300,000): zero
preservation effect period (total micro-organism; calcium oxide levels of 2.0% and 2.5% (w/w), Example 14): 10 days
microbial counts (total micro-organism; calcium oxide powder 5% and 10% (w/w), end of the 9 week period): <10 to 20 cfu/gram
preservation time with total microbial counts <10 cfu/g (total micro-organism; [3]): ≧9 weeks
preservation time with total microbial counts <100 cfu/g (total micro-organism; [3]): ≧9 weeks
preservation time with total microbial counts <1000 cfu/g (total micro-organism; [3]): ≧9 weeks
preservation time with total microbial counts <10 cfu/g (total micro-organism; dose 10% w/w, distiller's grains not de-watered, Examples 16-18): ≧9 weeks
Total plate count (total micro-organism; [4]): 1.01E+06 cfu/gram
Total plate count (total micro-organism; wet distiller's grains, 0.5% CaO (w/w), day 2): 680000 cfu/gram
Total plate count (total micro-organism; [5]): 35000 cfu/gram
Total plate count (total micro-organism; [6]): 5.60E+07 cfu/gram
Total plate count (total micro-organism; [7]): 3.30E+06 cfu/gram
Total plate count (total micro-organism; wet distiller's grains, 1.0% CaO (w/w), day 1): 3.50E+06 cfu/gram
Total plate count (total micro-organism; [8]): 3600 cfu/gram
Total plate count (total micro-organism; [9]): 720 cfu/gram
Total plate count (total micro-organism; [10]): 120 cfu/gram
Total plate count (total micro-organism; [11]): 320 cfu/gram
Total plate count (total micro-organism; [12]): 4.70E+07 cfu/gram
Total plate count (total micro-organism; [13]): 26200 cfu/gram
Total plate count (total micro-organism; [14]): 110 cfu/gram
Total plate count (total micro-organism; [15]): 40 cfu/gram
Total plate count (total micro-organism; [16]): 90 cfu/gram
Total plate count (total micro-organism; [17]): 730 cfu/gram
Total plate count (total micro-organism; wet distiller's grains, 1.5% CaO (w/w), day 10): 70 cfu/gram
Total plate count (total micro-organism; [18]): 1090 cfu/gram
Total plate count (total micro-organism; wet distiller's grains, 2.0% CaO (w/w), day 2): 130 cfu/gram
Total plate count (total micro-organism; [19]): 130 cfu/gram
Total plate count (total micro-organism; [20]): 340 cfu/gram
Total plate count (total micro-organism; [21]): 180 cfu/gram
Total plate count (total micro-organism; [22]): 60 cfu/gram
Total plate count (total micro-organism; [23]): 5300 cfu/gram
Total plate count (total micro-organism; [24]): 60 cfu/gram
Total plate count (total micro-organism; [25]): 240 cfu/gram
Total plate count (total micro-organism; [26]): 90 cfu/gram
Total plate count (total micro-organism; [27]): 10 cfu/gram
Total plate count (total micro-organism; [28]): 150 cfu/gram
Total plate count (total micro-organism; [29]): 50 cfu/gram
Total plate count (total micro-organism; wet distiller's grains, 2.5% CaO (w/w), day 14): 74,000 cfu/gram
Total plate count (total micro-organism; [30]): 1,010,000 cfu/gram
Total plate count (total micro-organism; [31]): 6,800,000 cfu/gram
Total plate count (total micro-organism; [32]): 660 cfu/gram
Total plate count (total micro-organism; [33]): 82,000 cfu/gram
Total plate count (total micro-organism; wet distiller's grains, 5.0% CaO (w/w), day 21): 180 cfu/gram
Total plate count (total micro-organism; [34]): 20 cfu/gram
Total plate count (total micro-organism; [35]): 50 cfu/gram
Total plate count (total micro-organism; [36]): 3,400 cfu/gram
Total plate count (total micro-organism; [37]): 740 cfu/gram
Total plate count (total micro-organism; wet distiller's grains, 10.0% CaO (w/w), day 14): 150 cfu/gram
Total plate count (total micro-organism; [38]): 100 cfu/gram
Total plate count (total micro-organism; [39]): 130 cfu/gram
Total plate count (total micro-organism; [40]): 80 cfu/gram
Total plate count (total micro-organism; [41]): 460 cfu/gram
Yeast Count (yeast; 5% CaO (w/w) powder, week 1): 10 cfu/gram
Yeast Count (yeast; 5% CaO (w/w) powder, week 2): 10 cfu/gram
Yeast Count (yeast; 5% CaO (w/w) powder, week 3): 113 cfu/gram
Yeast Count (yeast; 5% CaO (w/w) powder, week 5): 10 cfu/gram
Yeast Count (yeast; [4]): <10 cfu/gram
Yeast Count (yeast; [5]): <10 cfu/gram
Yeast Count (yeast; [6]): 40000 cfu/gram
Yeast Count (yeast; [7]): <10 cfu/gram
Yeast Count (yeast; [8]): <10 cfu/gram
Yeast Count (yeast; [9]): <10 cfu/gram
Yeast Count (yeast; [10]): <10 cfu/gram
Yeast Count (yeast; [11]): <10 cfu/gram
Yeast Count (yeast; [12]): 20 cfu/gram
Yeast Count (yeast; [13]): <10 cfu/gram
Yeast Count (yeast; [14]): <10 cfu/gram
Yeast Count (yeast; [15]): <10 cfu/gram
Yeast Count (yeast; [16]): <10 cfu/gram
Yeast Count (yeast; [17]): <10 cfu/gram
Yeast Count (yeast; [18]): <10 cfu/gram
Yeast Count (yeast; [19]): <10 cfu/gram
Yeast Count (yeast; [20]): <10 cfu/gram
Yeast Count (yeast; [21]): <10 cfu/gram
Yeast Count (yeast; [22]): <10 cfu/gram
Yeast Count (yeast; [23]): <10 cfu/gram
Yeast Count (yeast; [24]): <10 cfu/gram
Yeast Count (yeast; [25]): <10 cfu/gram
Yeast Count (yeast; [26]): <10 cfu/gram
Yeast Count (yeast; [27]): 10 cfu/gram
Yeast Count (yeast; [28]): <10 cfu/gram
Yeast Count (yeast; [29]): <10 cfu/gram
Yeast Count (yeast; [30]): 53,000 cfu/gram
Yeast Count (yeast; [31]): 115,000 cfu/gram
Yeast Count (yeast; [32]): 10 cfu/gram
Yeast Count (yeast; [33]): 10 cfu/gram
Yeast Count (yeast; [34]): 10 cfu/gram
Yeast Count (yeast; [35]): 20 cfu/gram
Yeast Count (yeast; [36]): 20 cfu/gram
Yeast Count (yeast; [37]): 10 cfu/gram
Yeast Count (yeast; [38]): 10 cfu/gram
Yeast Count (yeast; [39]): 10 cfu/gram
Yeast Count (yeast; [40]): 10 cfu/gram
Yeast Count (yeast; [41]): 10 cfu/gram
pH ([1]; 0.5% CaO (w/w), day 1): 7.97
pH ([1]; 0.5% CaO (w/w), day 2): 8.06
pH ([1]; 0.5% CaO (w/w), day 3): 7.63
pH ([1]; 0.5% CaO (w/w), day 6): 7.38
pH ([1]; 0.5% CaO (w/w), day 8): 7.80
pH ([1]; 1.0% CaO (w/w), day 1): 8.86
pH ([1]; 1.0% CaO (w/w), day 2): 8.82
pH ([1]; 1.0% CaO (w/w), day 3): 9.19
pH ([1]; 1.0% CaO (w/w), day 6): 9.21
pH ([1]; 1.0% CaO (w/w), day 8): 7.89
pH ([1]; 1.0% CaO (w/w), day 10): 8.27
pH ([1]; 1.5% CaO (w/w), day 1): 9.10
pH ([1]; 1.5% CaO (w/w), day 2): 9.15
pH ([1]; 1.5% CaO (w/w), day 3): 9.95
pH ([1]; 1.5% CaO (w/w), day 6): 9.84
pH ([1]; 1.5% CaO (w/w), day 8): 9.10
pH ([1]; 1.5% CaO (w/w), day 10): 10.84
pH ([1]; 2.0% CaO (w/w), day 1): 10.68
pH ([1]; 2.0% CaO (w/w), day 2): 10.10
pH ([1]; 2.0% CaO (w/w), day 3): 9.48
pH ([1]; 2.0% CaO (w/w), day 6): 11.22
pH ([1]; 2.0% CaO (w/w), day 8): 9.76
pH ([1]; 2.0% CaO (w/w), day 10): 9.97
pH ([1]; 2.5% CaO (w/w), day 1): 11.48
pH ([1]; 2.5% CaO (w/w), day 2): 11.08
pH ([1]; 2.5% CaO (w/w), day 3): 11.41
pH ([1]; 2.5% CaO (w/w), day 6): 11.55
pH ([1]; 2.5% CaO (w/w), day 8): 10.29
pH ([1]; 2.5% CaO (w/w), day 10): 8.87
pH ([1]; 5% CaO (w/w) powder, week 1): 11.36
pH ([1]; 5% CaO (w/w) powder, week 2): 11.00
pH ([1]; 5% CaO (w/w) powder, week 3): 12.20
pH ([1]; 5% CaO (w/w) powder, week 4): 11.61
pH ([1]; 5% CaO (w/w) powder, week 5): 11.34
pH of treated wet distiller's grains [1, 2]: below 8
